# Data published in patent US20240293405A1, “(1H-PYRROLO[2,3-B]PYRIDIN-1-YL)PYRIMIDIN-2-YL-AMINO-PHENYL-ACRYLAMIDE INHIBITORS OF EGFR FOR USE IN THE TREATMENT OF BRAIN TUMORS” (Dana-Farber Cancer Institute, Inc., priority 2021, published 2024).
# Like-named read-outs stand apart in the source and are kept apart here.
# Key:
# [1] = system: P-gp, Bcrp; conditions: previously published report; cited from earlier work
# [2] = system: NSCLC brain metastases; assay: NSCLC brain metastases in SCID mice; conditions: 25 mg/kg; […]
# [3] = system: PC-9 cells (EGFR exon 19 deletion); assay: Cell viability assay, PC-9 (CellTiter-Glo); format: cell-based; conditions: Homo sapiens, PC-9, read-out: IC50, cell viability
# Text: (§1) CellTier-Glo (Promega) assay kit (https://www.promega.com/resources/protocols/technical-bulletins/0/celltiter-glo-luminescentcell-viability-assay-protocol/) was used here.
# [4] = molecular target: PDGFRB (Homo sapiens, UniProt P09619); assay: Kinase binding constant (Kd)
# Experimental: (§2) EGFR amplifications and/or mutations are common in GBM, estimated to occur in over 50% of patients.
# (§3) Compound 1 and Compound 2 (major metabolite) were evaluated in a panel of 468 human kinases and disease relevant mutant variants. Compound 1 and Compound 2 bound to few non-mutant kinases at <1% of control. […] While there is some variability between Compound 1 and Compound 2, it is clear that both compounds are very effective at binding to a large panel of mutant kinases. […] Binding constant to wild type EGFR was 4.9 nM.
# [5] = molecular target: ALK (Homo sapiens, UniProt Q9UM73); assay: Kinase binding constant (Kd)
# Experimental: as §2, §3
# [6] = molecular target: PDGFRA (Homo sapiens, UniProt P16234); assay: Kinase binding constant (Kd)
# Experimental: as §2, §3
# [7] = system: NCI-H1975 cells (EGFR L858R/T790M mutation); assay: Cell viability assay, NCI-H1975 (CellTiter-Glo); format: cell-based; conditions: Homo sapiens, NCI-H1975, 72 h, read-out: IC50, cell viability
# Text: as §1
# [8] = system: U251-EGFRvIII cells; assay: Viability/proliferation of U251-EGFRvIII cells; format: cell-based, human
# Experimental: (§4) Cells were seeded in 96-well plates at a density of 1,000 cells per well and treated with two-fold serial dilutions of compounds with a starting concentration of 20 μM. Cell viability was assessed after three days of treatment by CellTiter-Glo (Promega). Curve fitting analysis and IC50 value determination were performed using GraphPad Prism 8.
# In parallel, the conventional human GBM U251 cell line was used as a surrogate model for both in vitro and in vivo studies. U251 cells were engineered to stably express EGFRvIII (U251-EGFRvIII) via retroviral-mediated gene transfer.
# [9] = system: 293-EGFRvIII cells; assay: Cell viability of 293-EGFRvIII cells (CellTiter-Glo); format: cell-based, human; conditions: Homo sapiens, 72 h, read-out: IC50, viability of 293-EGFRvIII cells
# Experimental: as §4
# [10] = Body weight over the course of treatment in mice; format: in vivo; conditions: 25 mg/kg; study endpoint reached within one month
# Chain of PDGFRB (P09619 33-1106): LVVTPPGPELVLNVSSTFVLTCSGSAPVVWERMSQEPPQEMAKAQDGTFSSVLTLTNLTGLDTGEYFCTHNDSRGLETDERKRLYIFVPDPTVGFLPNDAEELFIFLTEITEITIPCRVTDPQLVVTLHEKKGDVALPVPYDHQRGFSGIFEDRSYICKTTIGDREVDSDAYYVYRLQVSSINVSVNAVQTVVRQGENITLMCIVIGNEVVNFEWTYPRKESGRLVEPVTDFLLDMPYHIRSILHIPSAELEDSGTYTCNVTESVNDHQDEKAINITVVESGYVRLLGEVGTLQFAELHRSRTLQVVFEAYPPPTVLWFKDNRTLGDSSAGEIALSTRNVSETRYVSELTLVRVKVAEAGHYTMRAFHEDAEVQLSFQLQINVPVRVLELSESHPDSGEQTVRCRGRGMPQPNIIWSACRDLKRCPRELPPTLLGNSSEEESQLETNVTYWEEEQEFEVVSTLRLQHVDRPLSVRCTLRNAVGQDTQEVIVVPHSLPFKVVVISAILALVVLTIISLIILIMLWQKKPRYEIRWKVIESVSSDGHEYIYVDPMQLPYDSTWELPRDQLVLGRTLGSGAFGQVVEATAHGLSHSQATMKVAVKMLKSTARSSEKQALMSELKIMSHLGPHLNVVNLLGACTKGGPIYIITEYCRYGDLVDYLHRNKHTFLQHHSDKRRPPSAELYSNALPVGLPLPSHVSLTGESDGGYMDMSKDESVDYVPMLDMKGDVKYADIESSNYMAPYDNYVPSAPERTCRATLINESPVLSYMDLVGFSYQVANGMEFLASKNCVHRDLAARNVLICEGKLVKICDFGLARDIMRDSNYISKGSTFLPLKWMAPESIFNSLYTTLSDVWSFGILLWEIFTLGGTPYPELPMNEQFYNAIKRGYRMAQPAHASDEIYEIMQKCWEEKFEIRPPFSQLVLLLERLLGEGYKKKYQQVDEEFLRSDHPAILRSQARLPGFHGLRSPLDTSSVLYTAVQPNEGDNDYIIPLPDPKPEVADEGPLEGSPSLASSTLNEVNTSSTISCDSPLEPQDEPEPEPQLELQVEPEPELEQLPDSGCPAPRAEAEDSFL
# Chain of PDGFRA (P16234 24-1089): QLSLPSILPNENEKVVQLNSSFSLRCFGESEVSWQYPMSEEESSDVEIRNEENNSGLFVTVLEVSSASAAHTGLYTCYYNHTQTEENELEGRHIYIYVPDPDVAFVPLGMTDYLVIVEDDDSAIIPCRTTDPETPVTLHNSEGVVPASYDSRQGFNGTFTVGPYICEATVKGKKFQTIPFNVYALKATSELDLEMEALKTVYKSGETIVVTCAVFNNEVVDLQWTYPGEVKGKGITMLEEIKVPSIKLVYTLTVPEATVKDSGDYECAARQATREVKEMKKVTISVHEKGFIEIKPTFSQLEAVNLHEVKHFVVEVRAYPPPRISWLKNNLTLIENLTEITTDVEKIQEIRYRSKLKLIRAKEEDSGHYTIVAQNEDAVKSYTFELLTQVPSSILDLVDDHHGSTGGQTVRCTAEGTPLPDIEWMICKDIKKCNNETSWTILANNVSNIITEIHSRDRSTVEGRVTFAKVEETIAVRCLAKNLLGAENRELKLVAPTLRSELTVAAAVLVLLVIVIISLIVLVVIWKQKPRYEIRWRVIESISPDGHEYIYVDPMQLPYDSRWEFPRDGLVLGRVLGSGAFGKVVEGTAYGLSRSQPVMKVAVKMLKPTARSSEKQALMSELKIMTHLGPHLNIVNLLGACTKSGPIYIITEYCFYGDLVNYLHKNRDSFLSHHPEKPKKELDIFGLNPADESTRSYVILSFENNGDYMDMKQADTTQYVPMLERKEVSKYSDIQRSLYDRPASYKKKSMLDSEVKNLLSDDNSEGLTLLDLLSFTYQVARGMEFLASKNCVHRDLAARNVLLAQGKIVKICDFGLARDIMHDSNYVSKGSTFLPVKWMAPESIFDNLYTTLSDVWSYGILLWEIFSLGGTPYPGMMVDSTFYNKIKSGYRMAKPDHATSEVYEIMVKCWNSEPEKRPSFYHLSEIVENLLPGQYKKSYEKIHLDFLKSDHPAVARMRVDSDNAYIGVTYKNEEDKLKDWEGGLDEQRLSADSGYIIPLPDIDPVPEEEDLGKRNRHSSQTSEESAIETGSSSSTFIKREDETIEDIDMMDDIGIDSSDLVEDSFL
# Chain of ALK (Q9UM73 19-1620): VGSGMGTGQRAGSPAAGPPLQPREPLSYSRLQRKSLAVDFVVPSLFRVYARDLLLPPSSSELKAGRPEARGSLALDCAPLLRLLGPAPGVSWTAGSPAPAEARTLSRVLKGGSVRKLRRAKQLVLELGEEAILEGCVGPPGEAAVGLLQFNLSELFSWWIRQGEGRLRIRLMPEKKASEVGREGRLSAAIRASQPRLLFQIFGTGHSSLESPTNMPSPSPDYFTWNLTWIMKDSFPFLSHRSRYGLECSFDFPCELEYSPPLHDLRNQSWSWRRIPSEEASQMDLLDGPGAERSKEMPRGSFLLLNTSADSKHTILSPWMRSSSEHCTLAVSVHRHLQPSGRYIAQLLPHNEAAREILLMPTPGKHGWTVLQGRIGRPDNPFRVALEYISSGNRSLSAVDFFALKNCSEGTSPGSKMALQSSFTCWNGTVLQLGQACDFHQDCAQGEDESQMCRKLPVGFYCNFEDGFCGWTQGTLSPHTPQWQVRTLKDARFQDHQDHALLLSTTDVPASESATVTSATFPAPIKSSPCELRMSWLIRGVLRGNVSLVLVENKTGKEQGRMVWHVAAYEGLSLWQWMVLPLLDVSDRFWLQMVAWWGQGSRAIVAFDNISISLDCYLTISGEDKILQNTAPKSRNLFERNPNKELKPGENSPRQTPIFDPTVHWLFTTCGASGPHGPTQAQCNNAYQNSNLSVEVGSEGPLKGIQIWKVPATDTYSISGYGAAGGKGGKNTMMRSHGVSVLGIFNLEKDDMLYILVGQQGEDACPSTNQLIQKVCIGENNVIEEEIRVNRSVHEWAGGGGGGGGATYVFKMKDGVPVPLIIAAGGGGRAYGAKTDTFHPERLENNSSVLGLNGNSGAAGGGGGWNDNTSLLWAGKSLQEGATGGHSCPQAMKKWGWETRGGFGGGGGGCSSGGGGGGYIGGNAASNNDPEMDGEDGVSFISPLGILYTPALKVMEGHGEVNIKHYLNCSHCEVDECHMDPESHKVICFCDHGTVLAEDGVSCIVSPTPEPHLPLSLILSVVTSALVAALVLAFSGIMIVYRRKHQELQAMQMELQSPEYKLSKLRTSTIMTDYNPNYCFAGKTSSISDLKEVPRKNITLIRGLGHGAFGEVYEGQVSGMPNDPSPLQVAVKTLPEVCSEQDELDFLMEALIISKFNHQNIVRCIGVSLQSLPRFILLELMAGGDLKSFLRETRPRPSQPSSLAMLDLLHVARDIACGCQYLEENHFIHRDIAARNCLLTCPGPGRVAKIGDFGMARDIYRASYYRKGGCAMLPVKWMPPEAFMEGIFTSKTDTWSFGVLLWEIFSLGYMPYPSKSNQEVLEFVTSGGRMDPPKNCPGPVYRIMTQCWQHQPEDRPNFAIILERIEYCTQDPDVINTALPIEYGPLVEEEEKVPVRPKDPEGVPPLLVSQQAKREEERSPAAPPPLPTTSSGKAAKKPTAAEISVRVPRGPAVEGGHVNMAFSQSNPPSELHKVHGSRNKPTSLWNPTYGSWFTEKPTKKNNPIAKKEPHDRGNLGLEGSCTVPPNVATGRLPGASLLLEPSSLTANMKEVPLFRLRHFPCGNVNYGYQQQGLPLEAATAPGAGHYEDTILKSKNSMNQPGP
smiles,measurement,setting,value
"C=CC(=O)Nc1cc(Nc2nccc(-c3cn(C)c4ccccc34)n2)c(OC)cc1N(C)CCN(C)C [Osimertinib, reference compound]",Efflux Liability,[1],"P-gp, Bcrp"
same,time at which study endpoint was reached,[2],4 weeks
same,IC50,[3],18.1 nM
same,Kd,[4],1500 nM
same,Kd,[5],69 nM
same,Kd,[6],740 nM
same,IC50,"[8]; Homo sapiens, read-out: IC50 on U251-EGFRvIII cell proliferation",2450 nM
same,IC50,"[8]; read-out: IC50, viability of U251-EGFRvIII cells",2600 nM
same,IC50,[9],2190 nM
same,body weight over the course of treatment,[10],significant body weight loss
